In ChEMBL document CHEMBL1124718, “Synthesis and structure-activity relationship of C5-substituted analogues of (+-)-10,11-dihydro-5H-dibenzo[a,d]cyclohepten-5,10-imine [(+-)-desmethyl-MK801]: ligands for the NMDA receptor-coupled phencyclidine binding site” (J Med Chem, 1990):

Molecular target: Glutamate receptor ionotropic, NMDA 1 (Rattus norvegicus, UniProt P35439)
Test: Ability to displace [3H]TCP from high affinity PCP N-methyl-D-aspartate glutamate receptor in rat brain homogenates in vitro was determined
Format: tissue-based

NCC12NC(Cc3ccccc31)c1ccccc12 (configuration not stated) showed a Ki of 117 nM.

NC(=O)C12NC(Cc3ccccc31)c1ccccc12 (configuration not stated) gave a Ki of 11300 nM.

With NCCC12NC(Cc3ccccc31)c1ccccc12 (configuration not stated) the Ki was 20 nM.

Molecule CCCCCCCCCCC12NC(Cc3ccccc31)c1ccccc12 (configuration not stated) has a Ki of 21600 nM.

Work on IC12NC(Cc3ccccc31)c1ccccc12 (configuration not stated) yielded a Ki of 430 nM.

C=CCC12NC(Cc3ccccc31)c1ccccc12 (configuration not stated) showed a Ki of 70 nM.

COCC12NC(Cc3ccccc31)c1ccccc12 (configuration not stated) showed a Ki of 300 nM.

O=C(O)C12NC(Cc3ccccc31)c1ccccc12 (configuration not stated) showed a Ki of 32300 nM.

Molecule c1ccc(COCC23NC(Cc4ccccc42)c2ccccc23)cc1 (configuration not stated) has a Ki of 10000 nM.

With OCC12NC(Cc3ccccc31)c1ccccc12 (configuration not stated) the Ki was 40 nM.

In the case of c1ccc2c(c1)CC1NC2c2ccccc21 (configuration not stated), the Ki is reported as 120 nM.

In the case of ClCC12NC(Cc3ccccc31)c1ccccc12 (configuration not stated), the Ki is reported as 12 nM.

With CCCC12NC(Cc3ccccc31)c1ccccc12 (configuration not stated) the Ki was 1100 nM.

In the case of BrCC12NC(Cc3ccccc31)c1ccccc12 (configuration not stated), the Ki is reported as 33 nM.

In the case of N#CCC12NC(Cc3ccccc31)c1ccccc12 (configuration not stated), the Ki is reported as 967 nM.

For CCC12NC(Cc3ccccc31)c1ccccc12 (configuration not stated), the Ki was 12 nM.

CCCCCCC12NC(Cc3ccccc31)c1ccccc12 (configuration not stated) showed a Ki of 980 nM.
